Like-named read-outs stand apart in the source and are kept apart here.
How the values were obtained:
Assay type in all cases: cell-based
kinases in BCWM.1 cells [1] = molecular target: kinases in BCWM.1 cells (Homo sapiens, UniProt P53350); details: PLK1; Lys1; 1 μM, 90 min; GF
Experimental: (§1) The cells were harvested and lysed. […] Bound kinases were identified and quantitated by ACTIVX as described in Patricelli et al., Biochemistry, 2007, 46(2): 350-358. The compounds were tested in duplicates against duplicate or quadruplicate control samples.

kinases in BCWM.1 cells [2] = molecular target: kinases in BCWM.1 cells (Homo sapiens, UniProt P51812); details: Lys2, 1 μM, 90 min, GF
Experimental: as §1

kinases in BCWM.1 cells [3] = molecular target: kinases in BCWM.1 cells (Homo sapiens, UniProt O00329); details: PIK3CD; ATP; 1 μM, 90 min; GF
Experimental: as §1

kinases in BCWM.1 cells [4] = molecular target: kinases in BCWM.1 cells (Homo sapiens, UniProt P48426); details: PIP4K2A; ATP; 1 μM, 90 min; GF
Sequence of kinases in BCWM.1 cells (Homo sapiens, UniProt P48426) (P48426 2-406 limits assumed): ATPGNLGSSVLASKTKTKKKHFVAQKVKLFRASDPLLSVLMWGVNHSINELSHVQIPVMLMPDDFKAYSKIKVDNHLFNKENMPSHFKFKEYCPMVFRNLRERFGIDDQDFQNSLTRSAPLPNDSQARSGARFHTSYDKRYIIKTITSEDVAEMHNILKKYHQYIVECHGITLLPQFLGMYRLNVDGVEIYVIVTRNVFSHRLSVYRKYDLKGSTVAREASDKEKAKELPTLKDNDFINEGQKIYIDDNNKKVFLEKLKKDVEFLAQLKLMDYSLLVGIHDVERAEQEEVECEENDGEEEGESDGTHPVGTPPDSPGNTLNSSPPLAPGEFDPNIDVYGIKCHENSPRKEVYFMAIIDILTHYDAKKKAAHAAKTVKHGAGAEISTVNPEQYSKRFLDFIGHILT
Experimental: as §1

kinases in BCWM.1 cells [5] = molecular target: kinases in BCWM.1 cells (Homo sapiens, UniProt Q9UKI8); details: TLK1; Lys2; 1 μM, 90 min; GF
Experimental: as §1

kinases in BCWM.1 cells [6] = molecular target: kinases in BCWM.1 cells (Homo sapiens, UniProt Q16539); details: p38a, 1 μM, 90 min, GF
Sequence of kinases in BCWM.1 cells (Homo sapiens, UniProt Q16539) (Q16539 2-360 limits assumed): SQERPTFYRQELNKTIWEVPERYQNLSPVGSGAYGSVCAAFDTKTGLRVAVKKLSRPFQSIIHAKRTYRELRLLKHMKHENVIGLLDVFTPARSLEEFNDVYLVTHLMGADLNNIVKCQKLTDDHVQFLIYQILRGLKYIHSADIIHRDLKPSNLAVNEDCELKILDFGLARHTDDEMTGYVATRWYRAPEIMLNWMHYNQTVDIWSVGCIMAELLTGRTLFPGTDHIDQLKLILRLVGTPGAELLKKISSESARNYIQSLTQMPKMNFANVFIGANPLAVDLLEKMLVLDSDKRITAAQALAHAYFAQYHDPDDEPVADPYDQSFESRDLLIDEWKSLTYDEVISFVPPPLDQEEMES
Experimental: as §1

kinases in BCWM.1 cells [7] = details: 1 μM, 90 min, GF
Experimental: as §1

kinases in BCWM.1 cells [8] = molecular target: kinases in BCWM.1 cells (Homo sapiens, UniProt O95747); details: OSR1; Lys2; 1 μM, 90 min; GF
Sequence of kinases in BCWM.1 cells (Homo sapiens, UniProt O95747) (O95747 2-527 limits assumed): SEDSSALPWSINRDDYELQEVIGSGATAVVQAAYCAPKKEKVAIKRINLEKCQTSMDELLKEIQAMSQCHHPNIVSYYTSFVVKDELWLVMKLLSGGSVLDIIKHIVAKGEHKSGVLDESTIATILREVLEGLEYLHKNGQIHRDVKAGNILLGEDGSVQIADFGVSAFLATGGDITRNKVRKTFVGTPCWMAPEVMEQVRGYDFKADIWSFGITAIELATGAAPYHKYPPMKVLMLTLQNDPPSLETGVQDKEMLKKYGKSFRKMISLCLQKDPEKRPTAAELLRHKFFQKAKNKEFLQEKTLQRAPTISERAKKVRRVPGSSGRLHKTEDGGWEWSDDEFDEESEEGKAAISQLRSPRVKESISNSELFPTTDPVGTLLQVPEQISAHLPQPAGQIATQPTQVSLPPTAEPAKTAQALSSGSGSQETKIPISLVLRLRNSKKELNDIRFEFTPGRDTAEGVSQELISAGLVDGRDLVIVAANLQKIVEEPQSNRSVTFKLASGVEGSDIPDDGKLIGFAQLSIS
Experimental: as §1

kinases in BCWM.1 cells [9] = molecular target: kinases in BCWM.1 cells (Homo sapiens, UniProt P12931); details: SRC; Lys1; 1 μM, 90 min; GF
Sequence of kinases in BCWM.1 cells (Homo sapiens, UniProt P12931) (P12931 2-536 limits assumed): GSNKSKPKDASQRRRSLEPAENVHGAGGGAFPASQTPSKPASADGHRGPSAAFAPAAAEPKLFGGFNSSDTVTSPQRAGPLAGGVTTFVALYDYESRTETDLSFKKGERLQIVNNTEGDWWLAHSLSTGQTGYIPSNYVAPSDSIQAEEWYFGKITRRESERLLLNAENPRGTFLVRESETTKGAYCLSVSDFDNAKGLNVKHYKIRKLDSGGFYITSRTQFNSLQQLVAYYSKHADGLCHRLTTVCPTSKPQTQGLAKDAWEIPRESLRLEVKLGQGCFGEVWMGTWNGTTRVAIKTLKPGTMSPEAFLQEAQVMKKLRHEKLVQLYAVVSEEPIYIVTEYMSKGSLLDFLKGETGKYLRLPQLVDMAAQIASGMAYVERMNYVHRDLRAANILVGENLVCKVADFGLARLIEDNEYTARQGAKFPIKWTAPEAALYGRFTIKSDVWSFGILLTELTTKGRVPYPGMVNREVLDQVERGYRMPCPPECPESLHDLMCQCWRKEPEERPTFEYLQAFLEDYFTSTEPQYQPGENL
Experimental: as §1

kinases in BCWM.1 cells [10] = molecular target: kinases in BCWM.1 cells (Homo sapiens, UniProt Q9UKE5); details: ZC2/TNIK; Lys1; 1 μM, 90 min; GF
Experimental: as §1

kinases in BCWM.1 cells [11] = molecular target: kinases in BCWM.1 cells (Homo sapiens, UniProt Q8NEB9); details: PIK3C3; ATP; 1 μM, 90 min; GF
Experimental: as §1

kinases in BCWM.1 cells [12] = molecular target: kinases in BCWM.1 cells (Homo sapiens, UniProt Q9Y2H1); details: NDR2; Lys2; 1 μM, 90 min; GF
Sequence of kinases in BCWM.1 cells (Homo sapiens, UniProt Q9Y2H1) (Q9Y2H1 2-464 limits assumed): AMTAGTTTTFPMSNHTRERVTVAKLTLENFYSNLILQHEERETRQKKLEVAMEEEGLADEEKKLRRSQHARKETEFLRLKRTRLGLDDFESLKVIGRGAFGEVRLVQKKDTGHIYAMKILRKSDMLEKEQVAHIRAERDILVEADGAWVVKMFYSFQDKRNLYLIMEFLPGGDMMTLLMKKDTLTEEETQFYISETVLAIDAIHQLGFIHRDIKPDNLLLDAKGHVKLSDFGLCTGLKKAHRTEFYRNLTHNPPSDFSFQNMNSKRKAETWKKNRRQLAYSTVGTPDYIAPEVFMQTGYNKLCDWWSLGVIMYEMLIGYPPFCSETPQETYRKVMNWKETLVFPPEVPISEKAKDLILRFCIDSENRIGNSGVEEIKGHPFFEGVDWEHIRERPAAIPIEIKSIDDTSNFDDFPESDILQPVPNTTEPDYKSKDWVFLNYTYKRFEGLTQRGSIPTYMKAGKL
Experimental: as §1

kinases in BCWM.1 cells [13] = molecular target: kinases in BCWM.1 cells (Homo sapiens, UniProt P19525); details: PKR; Lys2; 1 μM, 90 min; GF
Sequence of kinases in BCWM.1 cells (Homo sapiens, UniProt P19525) (P19525 2-551 limits assumed): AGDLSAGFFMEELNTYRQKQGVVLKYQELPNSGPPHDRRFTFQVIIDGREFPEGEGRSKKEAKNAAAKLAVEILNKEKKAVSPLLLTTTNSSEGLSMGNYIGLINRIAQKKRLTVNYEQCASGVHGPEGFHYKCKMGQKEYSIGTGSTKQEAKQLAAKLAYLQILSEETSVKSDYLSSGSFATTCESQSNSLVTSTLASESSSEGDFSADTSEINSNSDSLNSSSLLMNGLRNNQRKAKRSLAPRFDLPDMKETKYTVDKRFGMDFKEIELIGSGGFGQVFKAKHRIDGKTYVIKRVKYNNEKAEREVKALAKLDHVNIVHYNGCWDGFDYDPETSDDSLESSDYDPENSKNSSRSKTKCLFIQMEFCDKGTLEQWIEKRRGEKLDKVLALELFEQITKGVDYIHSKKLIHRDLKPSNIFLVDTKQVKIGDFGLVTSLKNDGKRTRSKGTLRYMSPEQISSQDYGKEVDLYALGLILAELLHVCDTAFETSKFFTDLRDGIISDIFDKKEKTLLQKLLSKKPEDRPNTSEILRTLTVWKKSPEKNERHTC
Experimental: as §1

kinases in BCWM.1 cells [14] = molecular target: kinases in BCWM.1 cells (Homo sapiens, UniProt Q15349); details: RSK3 domain1; Lys2; 1 μM, 90 min; GF
Experimental: as §1

kinases in BCWM.1 cells [15] = molecular target: kinases in BCWM.1 cells (Homo sapiens, UniProt Q15418); details: Lys2, 1 μM, 90 min, GF
Experimental: as §1

kinases in BCWM.1 cells [16] = molecular target: kinases in BCWM.1 cells (Homo sapiens, UniProt Q16816); details: PHKg1; Protein Kinase Domain; 1 μM, 90 min; GF
Experimental: as §1

kinases in BCWM.1 cells [17] = molecular target: kinases in BCWM.1 cells (Homo sapiens, UniProt Q96S44); details: PRPK; ATP Loop; 1 μM, 90 min; GF
Experimental: as §1

kinases in BCWM.1 cells [18] = molecular target: kinases in BCWM.1 cells (Homo sapiens, UniProt Q8TBX8); details: PIP4K2C; ATP; 1 μM, 90 min; GF
Experimental: as §1

kinases in BCWM.1 cells [19] = molecular target: kinases in BCWM.1 cells (Homo sapiens, UniProt Q9UL54); details: TAO2; Lys2; 1 μM, 90 min; GF
Experimental: as §1

kinases in BCWM.1 cells [20] = molecular target: kinases in BCWM.1 cells (Homo sapiens, UniProt O15530); details: PDK1; Lys1; 1 μM, 90 min; GF
Experimental: as §1

kinases in BCWM.1 cells [21] = molecular target: kinases in BCWM.1 cells (Homo sapiens, UniProt Q15208); details: NDR1; Lys2; 1 μM, 90 min; GF
Sequence of kinases in BCWM.1 cells (Homo sapiens, UniProt Q15208) (Q15208 2-465 limits assumed): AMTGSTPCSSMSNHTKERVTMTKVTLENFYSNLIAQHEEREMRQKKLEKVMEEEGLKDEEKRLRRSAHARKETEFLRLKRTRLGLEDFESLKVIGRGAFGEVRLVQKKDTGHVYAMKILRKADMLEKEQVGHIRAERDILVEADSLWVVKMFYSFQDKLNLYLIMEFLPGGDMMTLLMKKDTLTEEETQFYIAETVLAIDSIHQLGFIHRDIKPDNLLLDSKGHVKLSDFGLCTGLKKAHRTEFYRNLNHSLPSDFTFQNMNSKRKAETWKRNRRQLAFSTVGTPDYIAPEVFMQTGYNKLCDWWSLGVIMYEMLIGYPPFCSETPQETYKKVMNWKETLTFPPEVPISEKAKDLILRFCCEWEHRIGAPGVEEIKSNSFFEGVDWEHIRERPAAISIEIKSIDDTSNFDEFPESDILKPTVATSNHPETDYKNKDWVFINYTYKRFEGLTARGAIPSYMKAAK
Experimental: as §1

kinases in BCWM.1 cells [22] = molecular target: kinases in BCWM.1 cells (Homo sapiens, UniProt Q9BZL6); details: PKD2; Lys1; 1 μM, 90 min; GF
Experimental: as §1

kinases in BCWM.1 cells [23] = molecular target: kinases in BCWM.1 cells (Homo sapiens, UniProt Q8TD19); details: NEK9; Lys2; 1 μM, 90 min; GF
Experimental: as §1

kinases in BCWM.1 cells [24] = molecular target: kinases in BCWM.1 cells (Homo sapiens, UniProt Q13523); details: PRP4; Lys2; 1 μM, 90 min; GF
Sequence of kinases in BCWM.1 cells (Homo sapiens, UniProt Q13523) (Q13523 2-1007 limits assumed): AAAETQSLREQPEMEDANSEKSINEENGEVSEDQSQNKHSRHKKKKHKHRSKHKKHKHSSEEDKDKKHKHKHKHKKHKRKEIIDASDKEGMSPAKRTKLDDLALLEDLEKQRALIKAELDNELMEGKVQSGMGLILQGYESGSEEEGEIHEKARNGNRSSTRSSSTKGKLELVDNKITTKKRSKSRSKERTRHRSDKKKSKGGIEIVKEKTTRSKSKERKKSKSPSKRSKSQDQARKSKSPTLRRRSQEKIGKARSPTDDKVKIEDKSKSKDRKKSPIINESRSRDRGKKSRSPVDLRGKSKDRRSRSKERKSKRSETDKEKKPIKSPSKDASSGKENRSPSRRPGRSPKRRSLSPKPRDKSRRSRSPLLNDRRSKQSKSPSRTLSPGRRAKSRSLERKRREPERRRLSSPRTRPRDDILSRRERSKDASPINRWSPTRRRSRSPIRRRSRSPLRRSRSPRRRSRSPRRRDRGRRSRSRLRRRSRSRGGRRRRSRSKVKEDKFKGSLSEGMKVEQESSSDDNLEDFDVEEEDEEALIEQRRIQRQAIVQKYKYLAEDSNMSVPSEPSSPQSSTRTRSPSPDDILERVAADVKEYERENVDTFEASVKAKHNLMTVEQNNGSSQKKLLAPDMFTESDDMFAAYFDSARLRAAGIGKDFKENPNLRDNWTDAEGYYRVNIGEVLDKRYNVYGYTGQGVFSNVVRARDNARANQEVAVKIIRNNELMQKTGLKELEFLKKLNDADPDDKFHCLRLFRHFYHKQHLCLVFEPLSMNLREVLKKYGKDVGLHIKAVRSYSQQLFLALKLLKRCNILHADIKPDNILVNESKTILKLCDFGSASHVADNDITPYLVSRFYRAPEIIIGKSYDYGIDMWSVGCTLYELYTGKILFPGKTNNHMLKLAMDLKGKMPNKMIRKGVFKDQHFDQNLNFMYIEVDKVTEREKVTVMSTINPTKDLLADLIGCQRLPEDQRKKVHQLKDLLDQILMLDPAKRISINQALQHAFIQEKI
Experimental: as §1

kinases in BCWM.1 cells [25] = molecular target: kinases in BCWM.1 cells (Homo sapiens, UniProt Q16512); details: PKN1; Lys1; 1 μM, 90 min; GF
Experimental: as §1

kinases in BCWM.1 cells [26] = molecular target: kinases in BCWM.1 cells (Homo sapiens, UniProt O94921)
Experimental: as §1

Sequence of kinases in BCWM.1 cells (Homo sapiens, UniProt P53350) (P53350 2-603 limits assumed): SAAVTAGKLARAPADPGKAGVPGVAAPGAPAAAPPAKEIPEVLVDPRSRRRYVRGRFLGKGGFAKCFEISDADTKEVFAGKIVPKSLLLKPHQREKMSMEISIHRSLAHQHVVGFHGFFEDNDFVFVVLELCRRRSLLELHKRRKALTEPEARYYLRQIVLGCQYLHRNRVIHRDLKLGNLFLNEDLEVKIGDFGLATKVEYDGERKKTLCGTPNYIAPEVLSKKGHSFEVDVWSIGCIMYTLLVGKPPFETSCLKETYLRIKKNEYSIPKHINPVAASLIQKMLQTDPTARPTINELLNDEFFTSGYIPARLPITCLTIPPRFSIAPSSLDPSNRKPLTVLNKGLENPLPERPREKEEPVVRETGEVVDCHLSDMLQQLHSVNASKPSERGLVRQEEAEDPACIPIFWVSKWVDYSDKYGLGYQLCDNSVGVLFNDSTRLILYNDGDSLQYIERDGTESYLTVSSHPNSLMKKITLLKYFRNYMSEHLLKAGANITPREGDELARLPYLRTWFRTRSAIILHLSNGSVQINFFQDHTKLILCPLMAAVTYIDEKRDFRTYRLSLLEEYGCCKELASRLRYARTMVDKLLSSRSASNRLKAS

C=CC(=O)N1CC[C@H](Nc2nccc(Nc3ncc(C(=O)Nc4c(C)cccc4C)s3)n2)C1 [Example I-3]
% change of MS signal compared to control sample (kinases in BCWM.1 cells [1]): −23% | % change of MS signal compared to control sample (kinases in BCWM.1 cells [2]; RSK2 domain1): −15.5% | % change of MS signal compared to control sample (kinases in BCWM.1 cells [2]; RSK2 domain2): −16.5% | % change of MS signal compared to control sample (kinases in BCWM.1 cells [3]): −17.2% | % change of MS signal compared to control sample (kinases in BCWM.1 cells [4]): −15.2% | % change of MS signal compared to control sample (kinases in BCWM.1 cells [5]): −6.9% | % change of MS signal compared to control sample (kinases in BCWM.1 cells [6]; Lys2): 70% | % change of MS signal compared to control sample (kinases in BCWM.1 cells [6]; Protein Kinase Domain): 67.9% | % change of MS signal compared to control sample (kinases in BCWM.1 cells [7]; MST4, YSK1, Lys2): 15.5% | % change of MS signal compared to control sample (kinases in BCWM.1 cells [7]; NEK6, NEK7, Lys2): −13.1% | % change of MS signal compared to control sample (kinases in BCWM.1 cells [7]; PCTAIRE2, PCTAIRE3, Lys1): −12% | % change of MS signal compared to control sample (kinases in BCWM.1 cells [7]; PI4KA, PI4KAP2, ATP): 12% | % change of MS signal compared to control sample (kinases in BCWM.1 cells [7]; PKACa, PKCb, Lys2): 3.3% | % change of MS signal compared to control sample (kinases in BCWM.1 cells [7]; ROCK1, ROCK2, Lys2): 12.5% | % change of MS signal compared to control sample (kinases in BCWM.1 cells [7]; RSK1 domain1, RSK2 domain1, RSK3 domain1, Lys2): −7.3% | % change of MS signal compared to control sample (kinases in BCWM.1 cells [7]; SRPK1, SRPK2, Lys1): 22.3% | % change of MS signal compared to control sample (kinases in BCWM.1 cells [7]; TAO1, TAO3, Lys2): 14.3% | % change of MS signal compared to control sample (kinases in BCWM.1 cells [7]; Wnk1, Wnk2, Wnk3, Lys2): −1.2% | % change of MS signal compared to control sample (kinases in BCWM.1 cells [7]; Wnk1, Wnk2, ATP Loop): 6.8% | % change of MS signal compared to control sample (kinases in BCWM.1 cells [7]; ZC1/HGK, ZC2/TNIK, ZC3/MINK, Lys2): −0.1% | % change of MS signal compared to control sample (kinases in BCWM.1 cells [7]; p38d, p38g, Lys2): −0.7% | % change of MS signal compared to control sample (kinases in BCWM.1 cells [8]): 4% | % change of MS signal compared to control sample (kinases in BCWM.1 cells [9]): 96.7% | % change of MS signal compared to control sample (kinases in BCWM.1 cells [10]): 32.9% | % change of MS signal compared to control sample (kinases in BCWM.1 cells [11]): −0.8% | % change of MS signal compared to control sample (kinases in BCWM.1 cells [12]): −9.6% | % change of MS signal compared to control sample (kinases in BCWM.1 cells [13]): −17.6% | % change of MS signal compared to control sample (kinases in BCWM.1 cells [14]): −19% | % change of MS signal compared to control sample (kinases in BCWM.1 cells [15]; RSK1 domain1): −16.9% | % change of MS signal compared to control sample (kinases in BCWM.1 cells [15]; RSK1 domain2): −20.8% | % change of MS signal compared to control sample (kinases in BCWM.1 cells [16]): −38.8% | % change of MS signal compared to control sample (kinases in BCWM.1 cells [17]): 17.3% | % change of MS signal compared to control sample (kinases in BCWM.1 cells [18]): 27% | % change of MS signal compared to control sample (kinases in BCWM.1 cells [19]): 8% | % change of MS signal compared to control sample (kinases in BCWM.1 cells [20]): −3.5% | % change of MS signal compared to control sample (kinases in BCWM.1 cells [21]): −5.5% | % change of MS signal compared to control sample (kinases in BCWM.1 cells [22]): −1.4% | % change of MS signal compared to control sample (kinases in BCWM.1 cells [23]): −9.9% | % change of MS signal compared to control sample (kinases in BCWM.1 cells [24]): −6.2% | % change of MS signal compared to control sample (kinases in BCWM.1 cells [25]): −29.4% | % change of MS signal compared to control sample (kinases in BCWM.1 cells [26]): −6.6%
